Assay results: ChEMBL document CHEMBL4017513, “Structure-Activity Relationships of Potent, Targeted Covalent Inhibitors That Abolish Both the Transamidation and GTP Binding Activities of Human Tissue Transglutaminase” (J Med Chem, 2017)

Tests used:
[1] = target: T1, Coagulation factor XIII A chain (Homo sapiens) (UniProt P00488); test: Inactivation of human F13a assessed as rate constant of enzyme inhibition using FRET- quenched A101 as substrate by fluorescence assay
T1 sequence (whole entry): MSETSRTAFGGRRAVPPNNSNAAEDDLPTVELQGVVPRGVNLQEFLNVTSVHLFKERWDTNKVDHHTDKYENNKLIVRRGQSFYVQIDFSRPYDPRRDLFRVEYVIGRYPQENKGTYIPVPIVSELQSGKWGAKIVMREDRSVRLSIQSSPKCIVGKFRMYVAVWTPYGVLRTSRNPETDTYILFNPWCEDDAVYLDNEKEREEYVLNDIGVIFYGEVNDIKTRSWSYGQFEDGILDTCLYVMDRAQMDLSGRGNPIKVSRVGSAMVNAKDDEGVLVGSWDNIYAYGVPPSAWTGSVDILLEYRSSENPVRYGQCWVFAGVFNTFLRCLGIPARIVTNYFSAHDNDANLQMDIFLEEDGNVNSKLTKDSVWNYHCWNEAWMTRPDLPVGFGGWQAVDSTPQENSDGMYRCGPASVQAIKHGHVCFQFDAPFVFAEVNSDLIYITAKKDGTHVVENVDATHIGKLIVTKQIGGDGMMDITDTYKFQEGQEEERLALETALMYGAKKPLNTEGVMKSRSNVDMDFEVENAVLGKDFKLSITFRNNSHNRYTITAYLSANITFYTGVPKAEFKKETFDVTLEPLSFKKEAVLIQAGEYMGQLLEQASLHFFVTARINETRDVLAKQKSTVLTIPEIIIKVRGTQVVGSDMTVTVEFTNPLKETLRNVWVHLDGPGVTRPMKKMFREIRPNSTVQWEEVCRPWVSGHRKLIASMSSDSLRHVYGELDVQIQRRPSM

[2] = target: T2, Protein-glutamine gamma-glutamyltransferase 6 (Homo sapiens) (UniProt O95932); test: Inactivation of human TG6 using AL5 as substrate by colorimetric assay
T2 sequence (whole entry): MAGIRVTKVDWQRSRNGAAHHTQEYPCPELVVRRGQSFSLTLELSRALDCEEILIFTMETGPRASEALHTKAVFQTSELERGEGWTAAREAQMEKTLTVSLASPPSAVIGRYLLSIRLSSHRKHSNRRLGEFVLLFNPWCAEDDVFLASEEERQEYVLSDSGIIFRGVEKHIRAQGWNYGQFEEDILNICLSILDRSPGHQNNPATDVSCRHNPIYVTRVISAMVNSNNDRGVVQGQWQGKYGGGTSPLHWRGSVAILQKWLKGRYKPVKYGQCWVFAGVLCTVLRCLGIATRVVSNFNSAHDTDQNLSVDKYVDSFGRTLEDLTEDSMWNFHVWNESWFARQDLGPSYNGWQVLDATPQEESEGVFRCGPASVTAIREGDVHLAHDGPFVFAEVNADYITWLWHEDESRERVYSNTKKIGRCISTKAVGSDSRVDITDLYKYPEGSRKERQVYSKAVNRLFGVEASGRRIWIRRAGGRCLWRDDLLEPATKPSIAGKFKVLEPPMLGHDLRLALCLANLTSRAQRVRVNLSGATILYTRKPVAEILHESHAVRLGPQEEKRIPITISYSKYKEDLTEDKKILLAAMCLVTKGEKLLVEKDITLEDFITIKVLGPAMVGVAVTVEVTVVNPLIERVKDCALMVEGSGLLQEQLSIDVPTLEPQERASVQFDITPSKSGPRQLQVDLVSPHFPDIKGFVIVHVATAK

[3] = target: T3, Protein-glutamine gamma-glutamyltransferase (Homo sapiens) (UniProt P21980); test: Ratio of kinact to Ki for human TG2 by colorimetric assay
T3 sequence (whole entry): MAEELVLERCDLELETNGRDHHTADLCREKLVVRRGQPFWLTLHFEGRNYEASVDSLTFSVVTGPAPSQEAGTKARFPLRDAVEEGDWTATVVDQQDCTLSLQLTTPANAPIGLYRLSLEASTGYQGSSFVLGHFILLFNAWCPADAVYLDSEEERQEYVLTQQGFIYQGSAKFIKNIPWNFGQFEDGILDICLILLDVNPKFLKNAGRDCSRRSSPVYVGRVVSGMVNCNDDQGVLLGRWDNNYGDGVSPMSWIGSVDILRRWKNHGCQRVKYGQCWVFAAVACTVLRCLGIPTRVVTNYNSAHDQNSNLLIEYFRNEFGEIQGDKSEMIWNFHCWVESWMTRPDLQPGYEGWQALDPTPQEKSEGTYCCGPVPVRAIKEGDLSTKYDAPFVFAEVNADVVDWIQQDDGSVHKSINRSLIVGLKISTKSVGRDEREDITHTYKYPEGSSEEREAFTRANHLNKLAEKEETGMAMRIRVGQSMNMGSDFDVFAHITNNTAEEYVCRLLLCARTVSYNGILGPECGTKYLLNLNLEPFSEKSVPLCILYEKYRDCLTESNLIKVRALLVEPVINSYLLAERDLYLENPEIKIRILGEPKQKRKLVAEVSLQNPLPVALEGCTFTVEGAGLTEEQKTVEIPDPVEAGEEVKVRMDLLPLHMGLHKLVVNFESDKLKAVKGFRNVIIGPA

Work on `C=CC(=O)NCCCC[C@H](NC(=O)OCc1ccccc1)C(=O)NCCOCCOCCNS(=O)(=O)c1cccc2c(N(C)C)cccc12` yielded a K [1] of 5.91 ×10⁻³ /min, a K [2] of 6.16 ×10⁻³ /min and a Ratio [3] of 76.4 ×10³ /M/min.
